The record followed here is patent US7211402B2, “Transcription factor coactivator protein, p/CIP” (The Regents of the University of California, priority 1997, dated 2007).

Entries after “also recorded” stand apart in the source; their conditions may differ.

Test [1] has as its system STAT-dependent (interferon γ-dependent) transcription. The test can be described thus: Single cell microinjection assay, interferon γ-dependent GAS/LacZ reporter. The class given is cell-based, rat. The conditions noted are these: for effect on interferon γ-dependent (STAT) gene activation: microinjection into Rat-1 cells, GAS/LacZ reporter. As to the method:
(§1) Insulin-responsive Rat-1 fibroblasts were seeded on acid washed glass coverslips at subconfluent density and grown in MNE/F12 medium supplemented with 10% fetal bovine serum, gentamicin and methotrexate. Prior to the injection, the cells were rendered quiescent by incubation in serum-free medium for 24–36 hr. Plasmids were injected into the nuclei of cells at a final concentration of […]. Peptides were injected at a concentration of 200 mM. Either preimmune IgG of the appropriate species or antibodies directed against p/CIP, NCoA-1 or NCoA-2 were co-injected and allowed the unambiguous identification of the injected cells.
(§2) Microinjections were carried out using an Eppendorf semiautomated microinjection system mounted on an inverted Zeiss microscope. Approximately 1 hr after injection, the cells were stimulated, where indicated, with the appropriate ligand. In the case of rescue experiments, the cells were stimulated with ligand 6 hr after injection, to allow protein expression. After overnight incubation, the cells were fixed, then stained to detect injected IgG and β-galactosidase expression (Rose et al., J. Cell. Biol. 119:1405–1411 (1992), which is incorporated herein by reference; Kamei et al., supra, 1996). Injected cells were identified by staining with tetramethylrhodamine-conjugated donkey anti-rabbit IgG.

The test system of test [2] is RAR-dependent transcription. As to the kind of experiment: Single cell microinjection assay, retinoic acid-dependent RARE/LacZ reporter. The class given is cell-based, rat. The note with it: for effect on retinoic acid-dependent gene activation by RAR: microinjection into Rat-1 cells. The procedure: as §1, §2
A further test addresses T1, liganded RAR and NCoA-1 (Homo sapiens, UniProt P10276).
T1 construct: GST-RAR (143–462), GST-ER(251–595) and GST-CBP(2058–2170) were generated as described; made in house; NCoA-1 was made by in vitro translation
T1 sequence (P10276 143-462): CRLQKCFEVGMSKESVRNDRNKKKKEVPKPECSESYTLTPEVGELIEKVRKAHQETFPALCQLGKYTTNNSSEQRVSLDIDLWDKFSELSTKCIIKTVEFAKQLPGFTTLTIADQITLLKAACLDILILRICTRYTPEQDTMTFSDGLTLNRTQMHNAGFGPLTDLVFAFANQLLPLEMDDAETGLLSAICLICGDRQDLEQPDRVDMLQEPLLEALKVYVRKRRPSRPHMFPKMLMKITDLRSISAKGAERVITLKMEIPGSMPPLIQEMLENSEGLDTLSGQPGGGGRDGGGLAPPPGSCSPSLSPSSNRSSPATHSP
As to the kind of experiment: In vitro competition assay, GST-RAR interaction with in vitro translated NCoA-1. The conditions noted are these: excess peptide; 35S-labeled NCoA interaction domain fragment (aa 635–760); TTNPB 1 μM. Type of test: binding. The procedure: GST-RAR (143–462), GST-ER(251–595) and GST-CBP(2058–2170) were generated as described (Kamei et al., supra, 1996). 25 ul of GST SEPHAROSE beads containing 10 ug of the GST recombinant proteins were incubated in the presence or absence of the appropriate ligand for 30 min at room temperature, followed by the addition of 1 mg of cell extract and incubated for an additional 1 hr at 4° C. The complexes were then centrifuged, washed three times in NET-N buffer, separated by SDS-PAGE and western blotted with the appropriate antibodies (1 ug/ml). For co-immunoprecipitation assays, 1 mg of cell extract was incubated in the presence of 2 ug of p/CIP or NCoA antibody for 2 hr at 4° C. The immune complexes were precipitated with protein A SEPHAROSE (50% w/v). Protein complexes were separated by SDS-PAGE (Laemmle, Nature 227:680–685 (1970), which is incorporated herein by reference) and western blotted using 1 ug/ml of an anti-CBP/P300 monoclonal antibody (UBI). For in vitro competition assays, the indicated peptides were incubated with in vitro translated NCoA-1 prior to GST interaction with RAR.

Test [3] has as its target T2, estrogen receptor ligand binding domain (yeast two-hybrid bait, liganded) (UniProt P03372 251-595).
T2 construct: Tested with estradiol (10^-6 M); also called liganded estrogen receptor (LBD); ER
T2 sequence (looked up): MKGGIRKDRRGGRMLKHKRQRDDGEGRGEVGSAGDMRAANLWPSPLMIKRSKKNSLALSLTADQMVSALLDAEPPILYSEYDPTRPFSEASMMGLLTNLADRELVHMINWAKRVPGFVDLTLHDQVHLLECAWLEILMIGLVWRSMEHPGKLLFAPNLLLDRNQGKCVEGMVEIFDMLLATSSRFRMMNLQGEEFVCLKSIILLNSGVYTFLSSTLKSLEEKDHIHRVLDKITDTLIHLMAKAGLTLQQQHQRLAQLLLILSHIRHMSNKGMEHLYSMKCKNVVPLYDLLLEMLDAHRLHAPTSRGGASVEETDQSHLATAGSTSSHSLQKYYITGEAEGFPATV
The test can be described thus: yeast two-hybrid.
Text: EGY 48 cells were transformed with the lac Z reporter plasmid pSH 18–34 with the appropriate bait and prey vectors and plated out on -Ura-His-Trp medium containing 2% galactose.

Test [4] concerns SP-1 or CMV dependent transcription. As to the kind of experiment: Single cell microinjection assay, control promoters lacking nuclear receptor response elements. The class given is cell-based. The conditions noted are these: microinjection into Rat-1 cells. As to the method: as §1, §2
The test system of test [5] is TPA-dependent transcriptional activation. The test can be described thus: Single cell microinjection assay, TPA-dependent reporter. The note with it: microinjection into Rat-1 cells. The class given is cell-based. The procedure:
as §1, §2

Setting [6] is: simultaneous retinoic acid and interferon γ.

With “LCD4: 19-mer peptide corresponding to NCoA-1 LCD4 (aa 907–926)”, the “effect on interferon γ-dependent (STAT) gene activation” value (“effect on interferon γ-dependent” for short) in test [1] is recorded as “does not impair”. Moreover, the entries for the “effect on retinoic acid-dependent gene activation by RAR” value (shortened to “effect … by RAR”) in test [2] and in test [2] (listed as NCoA-1 LCD4) were “can block” and “inhibits”, respectively.
As for “CBP N′-P1: synthetic peptide of the N-terminal 22 amino acids of CBP; CBP N′-P1 (aa 1–19) (MAENLLDGPPNPKRAKLSS)”, the “effect on interferon γ-dependent” value in test [1] is listed as “markedly inhibited”. Further, in test [1] (setting [6]), the “effect on retinoic acid dependent inhibition of the GAS/LacZ reporter” value is recorded as “had no effect”. The “effect … by RAR” value in test [2] was “without effect”. For the same molecule, in test [2] (setting [6]), the “effect on interferon γ inhibition of RAR-dependent transcription” value is “relieved inhibition; also recorded: fully abolished”.
For the molecule “LCD 1: peptide corresponding to LCD 1 of NCoA-1; NCoA-1 LCD1 (aa 631–647) (SQTSHKLVQLLTTTAEQ; UniProt P70365 631-647, looked up, fragment)”, the “inhibition of interaction between liganded RAR and NCoA-1 in vitro” value with liganded RAR and NCoA-1 is on record as “less effective”.

B1: NCoA-1 (aa 635-760) with LCD2 mutation (amino acids 695 to 698, HRLL->AAAA), yeast two-hybrid prey (other, UniProt P70365 635-760, looked up)
chain: HKLVQLLTTTAEQQLRHADIDTSCKDVLSCTGTSSSASSNPSGGTCPSSHSSLTERHKILAAAAQEGSPSDITTLSVEPEKKDSVPASTAVSVSGQSQGSASIKLELDAAKKKESKDHQLLRYLLD
notes: also called Mutations of the LCD2 motif (RLHRLL->RLAAAA); not shown: B42 fusion partner of prey vector pJG 4-5
As to B1, the binding result in test [3] is “no binding”.

B2: p/CIP (aa 947–1084): 137 amino acid region of p/CIP (aa 947–1084) containing the core CBP interaction domain (protein, UniProt O09000 947-1084, looked up, fragment)
chain: VPTLPLRSNRLPGARPSLQQQQQQQQQQQQQQQQQQQQQQQMLQMRTGEIPMGMGVNPYSPAVQSNQPGSWPEGMLSMEQGPHGSQNRPLLRNSLDDLLGPPSNAEGQSDERALLDQLHTFLSNTDATGLEEIDRALG
For the molecule B2, in test [4], the “effect on SP-1 / CMV control promoters (non-CBP-dependent)” value was “did not block”. In addition, the “effect on TPA-dependent transcriptional activation” value in test [5] is recorded as “blocked”. Besides, the “effect on interferon γ-dependent” value in test [1] was “blocked”. Moreover, the “effect … by RAR” value in test [2] is “completely inhibited”; in test [2] (listed as amino acids 947 to 1084 of p/CIP), “inhibits”.
